{"source": "patent US10501516B2", "about": "“Peptide compound” (TAKEDA PHARMACEUTICAL COMPANY LIMITED, priority 2016, dated 2019)", "format_in_all_cases": "in vivo, mouse", "key": {"Male DIO C57BL/6J mice": {"test_system": "Male DIO C57BL/6J mice", "assay": "Repeated dosing study in diet-induced obese (DIO) mice", "settings": "for ALT / AST / Insulin / TC / TG: plasma, mean ± SD", "method": "Male DIO C57BL/6J mice (40 weeks old) were divided into the groups based on the data of body weight, food intake, and plasma parameters. Vehicle or the compounds (P41) of Example 41 was subcutaneously administered once a day for 4 weeks. Body weight and food intake were monitored during the study. Compounds were dissolved in 10% DMSO/saline. After the study, blood was collected and plasma parameters were measured. At day 29, body composition was measured by EchoMRI (Hitachi Aloka Medical, Ltd., Japan) and the animals were sacrificed. For hematoxylin and eosin (HE) staining, livers were dissected from DIO mice after 4 weeks drug administration described in the above body-weight studies section. Livers were fixed in 4% paraformaldehyde, embedded in paraffin, sectioned, and stained with HE. After processing, the sections were mounted and then examined via light microscopy (NanoZoomer, Hamamatsu Photonics).\nTotal RNA was isolated from the liver using QIAzol reagent (QIAGEN Japan, Tokyo, Japan) and cDNA was synthesized using High-Capacity cDNA Reverse Transcription Kit (Applied Biosystems, CA, USA). Quantitative RT-PCR was performed using the ABI Prism 7900 Sequence Detection System with EXPRESS qPCR Super Mix (Thermo Fisher Scientific Inc. MA. USA). Mixtures of primers and probes (Applied Biosystems) were used for the detection of mRNA (Table 4). The expression levels were normalized to those of beta-actin and Peptidyl isomerase A.\n(§1) Plasma glucose, triglyceride (TG), total cholesterol (TC), aspartate aminotransferase (AST), and alanine aminotransferase (ALT) were analyzed by Autoanalyzer 7180 (Hitachi High-Technologies Corporation, Japan). Blood glycated hemoglobin (GHb) was measured with the automated GHb analyzers (HLC-723G8, Tosoh, Tokyo, Japan). Liver triglyceride content was measured as follows: a piece of tissue was homogenized in saline and lipid was extracted by the addition of hexane:isopropanol (3:2) solution. The lipid phase was collected, dried and then dissolved in isopropanol. The concentration of triglyceride was measured by Triglyceride E-test (Wako Pure Chemical Industries, Ltd, Japan) and triglyceride content per g liver was calculated. Plasma insulin was measured with ELISA Assay kit (Shibayagi Co. Ltd., Japan)."}, "Male ob/ob mice": {"test_system": "Male ob/ob mice", "assay": "Repeated dosing study in ob/ob mice", "settings": "for ALT / AST / TC / TG: plasma, mean ± SD", "method": "Male ob/ob mice (9 weeks old) were divided into the groups based on the data of body weight, food intake, and plasma parameters. Vehicle or P41 was subcutaneously administered once a day for 4 weeks. Body weight and food intake were monitored during the study. Compounds were dissolved in 10% DMSO/saline. After the study, blood was collected and plasma parameters were measured. At day 29, the animals were sacrificed.\nas §1"}, "Male C57BL/6J mice": {"test_system": "Male C57BL/6J mice", "assay": "Conditioned taste aversion (CTA) test", "settings": "3 nmol/kg s.c.", "method": "Male C57BL/6J (9 weeks old) mice were habituated to time-restricted bottled water supply (2-3 hours/day) and subcutaneous injection of saline for 1 week. Mice were divided into the groups based on the data of body weight and water intake. CTA test was performed according to the following protocol. On day 1 for the first conditioning, mice were given 0.1% sodium saccharin solution to drink for 3 hours. Ten-minutes after supplying the saccharin solution, vehicles, liraglutides and P41 were administered subcutaneously. […] On day 2, mice were given tap water for 3 hours and subcutaneous injection of saline after water supply. On day 3, the second conditioning was conducted as the same procedure used on day 1. On day 4, mice were given tap water for 3 hours without subcutaneous injection. On day 5, both tap water and saccharin solution were supplied to mice for 3 hours without subcutaneous injection and the intake of each fluid was measured. Saccharin preference ratio (%) was calculated according to the following equation: {(amount of saccharin intake)/(amount of saccharin intake+amount of water intake)}×100."}, "[1]": {"settings": "3 nmol/kg s.c. once a day for 4 weeks"}, "[2]": {"settings": "10 nmol/kg s.c. once a day for 4 weeks"}, "[3]": {"settings": "30 nmol/kg s.c. once a day for 4 weeks"}, "[4]": {"settings": "3, 10 and 30 nmol/kg s.c. once a day for 4 weeks, dose-dependent"}, "[5]": {"settings": "quantitative RT-PCR, liver, 4 weeks"}, "[6]": {"settings": "10, 30 and 100 nmol/kg s.c. once a day for 4 weeks"}, "[7]": {"settings": "100 nmol/kg s.c. once a day for 4 weeks"}}, "note": "Square brackets hold non-standard residues; d marks the D form. Side chains are listed from the residue outwards. Peptide text beside a SMILES is read from it. * marks the point of attachment. NMeY = CN[C@@H](Cc1ccc(O)cc1)C(=O)O; Palmitoyl = CCCCCCCCCCCCCCCC(=O)*; αMeF = C[C@](N)(Cc1ccccc1)C(=O)O; Iva = CC[C@](C)(N)C(=O)O; Aib = CC(C)(N)C(=O)O", "data": [{"smiles": "CCCCCCCCCCCCCCCC(=O)NCC(=O)NCC(=O)NCC(=O)NCC(=O)NCCCC[C@H](NC(=O)[C@H](CC(=O)O)NC(=O)[C@H](CO)NC(=O)[C@@H](NC(=O)[C@](C)(Cc1ccccc1)NC(=O)[C@@H](NC(=O)CNC(=O)[C@H](CCC(=O)O)NC(=O)C(C)(C)NC(=O)[C@H](Cc1ccc(O)cc1)NC)[C@@H](C)O)[C@@H](C)O)C(=O)N[C@@H](CO)C(=O)N[C@H](C(=O)NC(C)(C)C(=O)N[C@@H](CC(C)C)C(=O)N[C@@H](CCC(=O)O)C(=O)N[C@@H](CCCCN)C(=O)N[C@@H](CCC(N)=O)C(=O)N[C@@H](CCCNC(=N)N)C(=O)N[C@@H](CCC(N)=O)C(=O)N[C@@](C)(CC)C(=O)N[C@@H](CCC(=O)O)C(=O)N[C@@H](Cc1ccccc1)C(=O)N[C@H](C(=O)N[C@@H](CCCNC(=N)N)C(=O)N[C@@H](Cc1c[nH]cn1)C(=O)N[C@@H](CC(C)C)C(=O)N[C@@H](CC(C)C)C(=O)N[C@@H](CC(N)=O)C(=O)N[C@@H](CCCCN)C(=O)NC(C)(C)C(=O)N[C@H](C(=O)N[C@@H](CCCNC(=N)N)C(=O)N[C@@H](CCC(N)=O)C(=O)N[C@@H](CCCNC(=N)N)C(=O)N[C@@H](Cc1ccc(O)cc1)C(N)=O)[C@@H](C)O)C(C)C)[C@@H](C)CC", "note": "[Example 41] (H-[NMeY][Aib]EGT[αMeF]TSDK([Gly-Gly-Gly-Gly-Palmitoyl])SI[Aib]LEKQRQ[Iva]EFVRHLLNK[Aib]TRQRY-NH2)", "values": [{"measurement": "decrease in body weight compared with vehicle group", "setting": "Male DIO C57BL/6J mice; [1]", "value": 14.6, "unit": "%"}, {"measurement": "decrease in body weight compared with vehicle group", "setting": "Male DIO C57BL/6J mice; [2]", "value": 30.0, "unit": "%"}, {"measurement": "decrease in body weight compared with vehicle group", "setting": "Male DIO C57BL/6J mice; [3]", "value": 37.1, "unit": "%"}, {"measurement": "lean mass (EchoMRI)", "setting": "Male DIO C57BL/6J mice; 3, 10 and 30 nmol/kg s.c. once a day for 4 weeks", "value": "subtle decrease"}, {"measurement": "fat mass (EchoMRI)", "setting": "Male DIO C57BL/6J mice; [4]", "value": "drastic decrease"}, {"measurement": "inguinal, mesenteric and epididymal fat pad weight", "setting": "Male DIO C57BL/6J mice; [4]", "value": "significantly decreased"}, {"measurement": "liver TG content", "setting": "Male DIO C57BL/6J mice; [4]", "value": "drastically decreased"}, {"measurement": "liver weight", "setting": "Male DIO C57BL/6J mice; [4]", "value": "drastically decreased"}, {"measurement": "ALT", "setting": "Male DIO C57BL/6J mice; [1]", "value": "94.2 ± 32.3", "unit": "U/L"}, {"measurement": "AST", "setting": "Male DIO C57BL/6J mice; [1]", "value": "170.0 ± 37.2", "unit": "U/L"}, {"measurement": "Insulin", "setting": "Male DIO C57BL/6J mice; [1]", "value": "4.9 ± 2.9", "unit": "ng/mL"}, {"measurement": "TC", "setting": "Male DIO C57BL/6J mice; [1]", "value": "253.6 ± 11.9", "unit": "mg/dL"}, {"measurement": "TG", "setting": "Male DIO C57BL/6J mice; [1]", "value": "50.5 ± 16.2", "unit": "mg/dL"}, {"measurement": "ALT", "setting": "Male DIO C57BL/6J mice; [2]", "value": "35.6 ± 9.7", "unit": "U/L"}, {"measurement": "AST", "setting": "Male DIO C57BL/6J mice; [2]", "value": "88.8 ± 11.7", "unit": "U/L"}, {"measurement": "Insulin", "setting": "Male DIO C57BL/6J mice; [2]", "value": "3.7 ± 2.7", "unit": "ng/mL"}, {"measurement": "TC", "setting": "Male DIO C57BL/6J mice; [2]", "value": "189.5 ± 22.1", "unit": "mg/dL"}, {"measurement": "TG", "setting": "Male DIO C57BL/6J mice; [2]", "value": "62.2 ± 16.1", "unit": "mg/dL"}, {"measurement": "ALT", "setting": "Male DIO C57BL/6J mice; [3]", "value": "37.5 ± 7.7", "unit": "U/L"}, {"measurement": "AST", "setting": "Male DIO C57BL/6J mice; [3]", "value": "90.2 ± 10.3", "unit": "U/L"}, {"measurement": "Insulin", "setting": "Male DIO C57BL/6J mice; [3]", "value": "5.2 ± 2.1", "unit": "ng/mL"}, {"measurement": "TC", "setting": "Male DIO C57BL/6J mice; [3]", "value": "173.2 ± 16.4", "unit": "mg/dL"}, {"measurement": "TG", "setting": "Male DIO C57BL/6J mice; [3]", "value": "50.2 ± 6.6", "unit": "mg/dL"}, {"measurement": "hepatic gene expression of inhibitor of fibrosis (MMP2)", "setting": "Male DIO C57BL/6J mice; [5]", "value": "tended to increase"}, {"measurement": "hepatic gene expression related to fibrosis (Timp1, Col1α) and inflammation (CCl2)", "setting": "Male DIO C57BL/6J mice; [5]", "value": "tended to decrease"}, {"measurement": "hepatic lipid droplet, HE staining of liver slices", "setting": "Male DIO C57BL/6J mice; s.c. once a day for 4 weeks", "value": "Reduction of hepatic lipid droplet"}, {"measurement": "GHb", "setting": "Male ob/ob mice; [6]", "value": "significant decrease"}, {"measurement": "body weight and cumulative food intake", "setting": "Male ob/ob mice; [6]", "value": "dose-dependent body weight and cumulative food intake reduction"}, {"measurement": "plasma glucose levels", "setting": "Male ob/ob mice; [6]", "value": "significant decrease"}, {"measurement": "plasma insulin levels", "setting": "Male ob/ob mice; [6]", "value": "Dose-dependent decrease"}, {"measurement": "liver and mesenteric, epididymal, and inguinal adipose tissue weight, and liver TG content", "setting": "Male ob/ob mice; 10, 30 and 100 nmol/kg s.c. once a day for 4 weeks, dose-dependent", "value": "decreased"}, {"measurement": "ALT", "setting": "Male ob/ob mice; [2]", "value": "50.6 ± 23.8", "unit": "U/L"}, {"measurement": "AST", "setting": "Male ob/ob mice; [2]", "value": "82.3 ± 25.0", "unit": "U/L"}, {"measurement": "TC", "setting": "Male ob/ob mice; [2]", "value": "137.0 ± 12.7", "unit": "mg/dL"}, {"measurement": "TG", "setting": "Male ob/ob mice; [2]", "value": "52.4 ± 13.0", "unit": "mg/dL"}, {"measurement": "ALT", "setting": "Male ob/ob mice; [3]", "value": "38.3 ± 9.3", "unit": "U/L"}, {"measurement": "AST", "setting": "Male ob/ob mice; [3]", "value": "83.5 ± 21.5", "unit": "U/L"}, {"measurement": "TG", "setting": "Male ob/ob mice; [3]", "value": "51.6 ± 14.2", "unit": "mg/dL"}, {"measurement": "ALT", "setting": "Male ob/ob mice; [7]", "value": "41.6 ± 10.1", "unit": "U/L"}, {"measurement": "AST", "setting": "Male ob/ob mice; [7]", "value": "77.7 ± 13.1", "unit": "U/L"}, {"measurement": "TC", "setting": "Male ob/ob mice; [7]", "value": "136.8 ± 6.1", "unit": "mg/dL"}, {"measurement": "TG", "setting": "Male ob/ob mice; [7]", "value": "46.9 ± 12.9", "unit": "mg/dL"}, {"measurement": "induction of conditioned taste aversion (emetic effects)", "setting": "Male C57BL/6J mice", "value": "did not induce CTA"}, {"measurement": "Saccharin preference ratio (%)", "setting": "Male C57BL/6J mice; two conditionings, mean ± SD", "value": "76.8 ± 9.5", "unit": "%"}]}]}
